Experiments:
[1] = system: murine day 3 embryos; assay: Mouse embryo development and blastocyst outgrowth assay on fibronectin-coated plates; type: cell-based; settings: short term exposure
Experimental: Ishikawa cells were seeded onto 2-well chamber slides in Ishikawa medium until they reached 80-90% confluence. Then, 5 minutes prior to exposure to metal implants, the medium was changed to G2 embryo culture medium, and the Ishikawa cells exposed to copper, zinc or copper-zinc bimetal implants for either 2 or 5 minutes duration (or remained unexposed (control)), and the resulting G2 culture media collected 8 hours later.
To determine whether metal ions were capable of enhancing embryo implantation, post-compaction mouse embryos were exposed to the “conditioned media” prior to undergoing outgrowth assays. In particular, pronucleate oocytes were collected from superovulated female F1 mice ˜21-22 hours post-hCG. Following cumulus cell removal, oocytes were cultured in 20 μl drops (10 embryos/drop) of G1 medium under paraffin oil (Vitrolife) at 37° C. in 6% CO2, 5% O2 and 89% N2. After 48 hours, compacting and morulae stage embryos were randomly transferred to culture in either (i) control G2 medium (Vitrolife) that had not been exposed to Ishikawa cells; (ii) individual culture in 2 μl of control, Ishikawa exposed G2; or (iii) individual culture in 2 μl drops of 2 minute copper-zinc bimetal implant exposed G2 medium. After 48 hours, the capacity of blastocysts to undergo outgrowth was assessed in the following manner. […] All images were collected and analysed at matching magnification.

[2] = system: VEGF production, human Ishikawa endometrial adenocarcinoma cell line; assay: VEGF production by Ishikawa cells exposed to copper or zinc chloride solutions (multiplex immunoassay); type: cell-based
Experimental: Medium was refreshed every 48 hours. Cells were subcultured using 0.25% trypsin/EDTA (Invitrogen).

[3] = system: LIF production, human Ishikawa endometrial adenocarcinoma cell line; assay: LIF production by Ishikawa cells exposed to copper or zinc chloride solutions (multiplex immunoassay)
Experimental: (§1) The human Ishikawa endometrial adenocarcinoma cell line (Sigma-Aldrich; St Louis, MO, United States of America) was used to model the endometrium's response to copper and zinc metal ions (Cu^2+ and Zn^2+). Cells were grown in T75 flasks (Nalge Nunc International, Rochester, NY, United States of America) in Ishikawa medium, consisting of αMEM (Sigma-Aldrich) supplemented with 5% foetal bovine serum (Invitrogen Corp, Carlsbad, CA, United States of America), 2 mM glutamine (Sigma-Aldrich) and 1% non-essential amino acids (Sigma-Aldrich) without antibiotics at 37° C. under a gas atmosphere of 5% CO2 in air. Medium was refreshed every 48 hours. Cells were subcultured using 0.25% trypsin/EDTA (Invitrogen). For metal ion exposure experiments, cells were seeded onto 2-well chamber slides (Ibidi, Martinsried, Germany). After the endometrial cells had attached and reached 80-90% confluence they were then exposed to copper and zinc metal ions using two approaches (salt solution or metal implant) as described below.
(§2) Copper or zinc chloride (Sigma-Aldrich) was dissolved in Ishikawa medium to produce salt solutions at various concentrations in the range of 0.2 μM and 200 μM, before being applied to Ishikawa cells seeded into 2-well chamber slides for a period of 8 hours. Following the 8 hours exposure, culture media were removed, centrifuged at 1000 g for 10 minutes at 4° C. to pellet any cellular debris, and then the supernatants were stored in Eppendorf tubes at −80° C. Subsequently, the supernatants were assayed for both LIF and VEGF content using a multiplex immunoassay system (elisakit.com, Scoresby, VIC, Australia).

[4] = system: LIF production, human Ishikawa endometrial adenocarcinoma cell line
Experimental: as §1, §2

Structure (SMILES): [Zn+2] [zinc ions]
- toxicity to pre-implantation embryo development [1]: not significant

Structure (SMILES): [Cl-].[Cl-].[Zn+2] [ZnCl2, zinc chloride]
- concentration from which VEGF production appeared reduced ([2]; 8 hours exposure): ≥ 150 µM
- increase in VEGF compared to controls ([2]; 8 hours exposure): no significant increase
- dose above which toxicity, with a reduction in LIF production, was observed ([3]; 8 hours exposure): exceeding 150 μM

Structure (SMILES): [Cu+2] [copper ions]
- toxicity to pre-implantation embryo development [1]: not significant

Structure (SMILES): [Cl][Cu][Cl] [CuCl2, copper chloride]
- toxicity in relation to LIF production [4]: No toxicity
- concentration of peak VEGF production ([2]; 8 hours exposure): 100 µM
- concentration producing a significant increase in VEGF production ([2]; 8 hours exposure): above 20 μM
- lowest amount confirmed to elicit an increase in endometrial VEGF ([2]; Example 1): 20 µM
- concentration exceeding which a relative decline in endometrial VEGF production was observed ([2]; in vitro): exceeding 100 μM
- increase in endometrial LIF production ([3]; CuCl2 200 μM): 4 fold
- LIF production increase above baseline ([3]; CuCl2 200 μM, 8 hours): 420%
- lowest amount confirmed to elicit an increase in endometrial LIF ([3]; Example 1): 20 µM
- concentration producing a significant increase in LIF production ([3]; salt solution in Ishikawa medium, 8 hours exposure): exceeding 2 μM
